Patent publication US20260345621A1, “GABAA RECEPTOR MODULATORS AND USES THEREOF” (Engrail Therapeutics, Inc., priority 2022, published 2026)
“Also recorded” adds a separate entry of the source.

Columns and labels:
[1] = phase II trial terminated; long term dosing studies; cited from earlier work
[2] = tested on: sleep stages; assay: Sleep-stage analysis in wirelessly implanted rats; settings: Lorazepam 1 mg/kg IP
[3] = tested on: EEG spectral bands; assay: Pharmaco-EEG spectral analysis in wirelessly implanted rats
[4] = tested on: anxiety (elevated plus maze); assay: Elevated plus maze (EPM); settings: oral
[5] = Frontal-Parietal cortex, Quiet Wake

CCn1ncnc1COc1nn2c(-c3ccccc3F)nnc2cc1C(C)(C)C [7-(1,1-dimethylethyl)-6-(2-ethyl-2H-1,2,4-triazol-3-ylmethoxy)-3-(2-fluorophenyl)-1,2,4-triazolo[4,3-b]pyridazine]
toxicity [1]: terminated due to toxicity in long term dosing studies

O=C1Nc2ccc(Cl)cc2C(c2ccccc2Cl)=NC1O (centres unmarked) [Lorazepam, reference compound]
NREM onset ([2]; Compound 1 1 mg/kg PO): decreased the latency to NREM onset; also recorded: quicker time to Non-REM onset sleep than Compound 1
Active Wake ([2]; Compound 1 PO): decreased Active Wake
NREM ([2]; Compound 1 PO): increased NREM
EEG spectral power change ([3]; Frontal-Frontal cortex, Active and Quiet Wake): increased beta, low and high gamma
EEG spectral power change ([3]; Frontal-Frontal cortex, NREM): decreased theta, alpha, and beta, but increased low gamma
duration of EEG effects ([3]; Frontal-Frontal cortex, NREM, Compound 1 high dose PO, Lorazepam 1 mg/kg IP): 9 h
EEG spectral power change ([3]; Frontal-Frontal cortex, REM): increased beta
duration of increase in low and high gamma ([3]; Frontal-Parietal cortex, NREM): only lasting to two hours post dose
EEG spectral power change [3, 5]: decreased theta, increased beta and low and high gamma
duration of EEG effects [3, 5]: did not last past four hours post dose
EEG spectral power change ([3]; Frontal-Parietal cortex, REM): increased theta, alpha, beta, and low gamma
EEG spectral power change ([3]; summary, Quiet Wake): increased low & high gamma, decreased delta

chlordiazepoxide [reference compound]
effect compared with reference anxiolytic chlordiazepoxide [4]: equivalent
